Assay results from ChEMBL document CHEMBL4602696, “LMP2 Inhibitors as a Potential Treatment for Alzheimer's Disease” (J Med Chem, 2020).
The source made the active and inactive calls. No cut-off for these calls is given here.

Tests used:
[1] = tested on: RPMI-8226; assay: Cytotoxicity against human RPM18226 cells up to 10 uM after 72 hrs by CellTiter 96 aqueous one solution reagent based assay; format: cell-based; settings: rpmi-8226, 72 h
[2] = tested on: BV-2; assay: Antiinflammatory activity against mouse BV2 cells assessed as reduction in LPS-induced IL-1alpha release after 24 hrs by ELISA; format: functional, cell-based
[3] = biological target: T1, Proteasome subunit beta type-9 (Homo sapiens) (UniProt P28065); assay: Inhibition of LMP2 in human ARPE-19 cells assessed as suppression of TNFalpha-stimulated EMT by measuring E-cadherin expression after 24 hrs by immunofluorescence analysis; format: cell-based
T1 sequence (whole entry): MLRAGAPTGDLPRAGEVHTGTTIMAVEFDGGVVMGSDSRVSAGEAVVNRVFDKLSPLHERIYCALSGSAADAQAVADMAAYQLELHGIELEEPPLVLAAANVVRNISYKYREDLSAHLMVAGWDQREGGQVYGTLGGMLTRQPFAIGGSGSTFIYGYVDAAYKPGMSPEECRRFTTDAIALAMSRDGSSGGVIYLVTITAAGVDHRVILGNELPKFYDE

[4] = biological target: T1, Proteasome subunit beta type-9 (Homo sapiens); assay: Inhibition of LMP2 subunit in human DLD1 cells over expressing ABCB1 at 1 uM using Ac-PAL-AMC as substrate incubated for 4 hrs; format: cell-based; settings: DLD-1
[5] = biological target: T2, Proteasome subunit beta type-9 (Homo sapiens, UniProt P28065); assay: Inhibition of LMP2 in human 20S immunoproteasome using Ac-PAL-AMC as substrate after 1 hr by fluorescence based microplate reader analysis
T2 sequence (P28065 whole entry): T1 sequence (whole entry)

[6] = tested on: Mus musculus; assay: Antineuroinflammatory activity in APP transgenic Tg2576 mouse assessed as inhibition of retinal pigment epithelium degeneration at 10 mg/kg, iv administered twice per week for 3 weeks by immuno staining based confocal microscopic analysis relative to control; format: functional; parameters: scale not given: the % may be the effect or the level left
[7] = tested on: Mus musculus; assay: Antialzheimer activity in transgenic Tg2576 ICR mouse at 10 mg/kg, iv administered twice per week for 3 weeks by Morris water maze test; format: functional, organism-based
[8] = biological target: T3, Proteasome Macropain subunit MB1 (Homo sapiens, UniProt P28074); assay: Inhibition of Beta5 in human 20S […] usingAc-WLA-AMC as substrate after 1 hr by fluorescence based microplate reader analysis
T3 sequence (P28074 whole entry): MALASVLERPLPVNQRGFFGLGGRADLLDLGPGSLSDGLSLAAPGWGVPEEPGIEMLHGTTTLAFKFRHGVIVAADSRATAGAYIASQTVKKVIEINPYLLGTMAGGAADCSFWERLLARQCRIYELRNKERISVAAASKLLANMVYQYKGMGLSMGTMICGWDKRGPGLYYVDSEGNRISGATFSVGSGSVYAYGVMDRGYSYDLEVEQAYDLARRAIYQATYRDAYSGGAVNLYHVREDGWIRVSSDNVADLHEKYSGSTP

[9] = tested on: WI-38; assay: Cytotoxicity against human WI38 cells up to 10 uM after 72 hrs by CellTiter 96 aqueous one solution reagent based assay; format: cell-based; settings: wi-38, 72 h
[10] = Inhibition of LMP7/Beta 5 subunit chymotrypsin-like activity in human RPM18226 cell lysates using Suc-LLVY-AMC as substrate after 1 hr by fluorescence based microplate reader analysis; format: cell-free; settings: rpmi-8226
[11] = tested on: Mus musculus; assay: Antialzheimer activity in transgenic Tg2576 ICR mouse assessed as reduction in IL-1alpha level in serum at 10 mg/kg, iv administered twice per week for 3 weeks by ELISA; format: functional, organism-based
[12] = tested on: BV-2; assay: Cytotoxicity against mouse BV2 cells up to 10 uM after 72 hrs by CellTiter 96 aqueous one solution reagent based assay; format: cell-based; settings: bv-2, 72 h
[13] = biological target: T1, Proteasome subunit beta type-9 (Homo sapiens); assay: Inhibition of immunoproteasome LMP2 subunit in human DLD1 cells over expressing ABCB1 at 3 uM using Ac-PAL-AMC as substrate incubated for 4 hrs in presence of reversin-121; format: cell-based; settings: DLD-1
[14] = Toxicity in transgenic Tg2576 ICR mouse at 10 mg/kg, iv administered twice per week for 3 weeks; format: organism-based; settings: in vivo, 504 h
[15] = biological target: T4, Proteasome subunit beta type-8 (Homo sapiens, UniProt P28062); assay: Inhibition of LMP7 in human 20S immunoproteasome using Ac-ANW-AMC as substrate after 1 hr by fluorescence based microplate reader analysis
T4 sequence (P28062 whole entry): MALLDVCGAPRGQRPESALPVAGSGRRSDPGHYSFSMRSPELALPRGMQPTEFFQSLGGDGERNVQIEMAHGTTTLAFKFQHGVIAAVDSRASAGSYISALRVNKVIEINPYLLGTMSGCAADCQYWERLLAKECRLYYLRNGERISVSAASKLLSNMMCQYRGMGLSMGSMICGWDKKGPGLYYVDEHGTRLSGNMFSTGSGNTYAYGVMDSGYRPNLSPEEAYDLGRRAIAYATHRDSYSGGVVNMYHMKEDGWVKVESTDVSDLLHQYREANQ

[16] = biological target: T1, Proteasome subunit beta type-9 (Homo sapiens); assay: Inhibition of LMP2 in human ARPE-19 cells assessed as suppression of TNFalpha-stimulated EMT by measuring vimentin expression after 24 hrs by immunofluorescence analysis; format: cell-based

Row | inhibition [3] | inhibition [4] | IC50 [8] | IC50 [10] | inhibition [13] | IC50 [15] | inhibition [16] | SMILES | Activity [1] | Activity [2] | IC50 [5] | Activity [6] | Activity [7] | Activity [9] | Activity [11] | Activity [12] | Activity [14]
1 | Active | Active | > 10 µM | > 10 µM | Active | > 10 µM | Active | CC(C)C[C@H](NC(=O)[C@H](Cc1ccccc1)NC(=O)[C@@H]1CCCN1C(=O)CNC(=O)c1cnccn1)C(=O)[C@@]1(C)CO1 | Non-Toxic | Active | 0.07 to 0.0806 µM | 100% | Active | Non-Toxic | Active | Non-Toxic | Non-Toxic
2 |  |  | > 10 µM |  |  | > 10 µM |  | CC(=O)NCC(=O)N1CCC[C@H]1C(=O)N[C@@H](Cc1ccccc1)C(=O)N[C@@H](CC(C)C)C(=O)[C@]1(C)CO1 |  |  |  |  |  |  |  |  | 
3 |  | inactive | > 10 µM | > 10 µM | Active | > 10 µM |  | CC(=O)NCC(=O)N1CCC[C@H]1C(=O)N[C@@H](Cc1ccccc1)C(=O)N[C@@H](CC(C)C)C(=O)[C@@]1(C)CO1 |  |  |  |  |  |  |  |  | 

Row | SMILES | inhibition [3] | inhibition [4] | IC50 [8] | IC50 [10] | inhibition [13] | IC50 [15] | inhibition [16] | Activity [1] | Activity [2] | IC50 [5] | Activity [6] | Activity [7] | Activity [9] | Activity [11] | Activity [12] | Activity [14]
4 | C[C@]1(C(=O)[C@H](Cc2ccccc2)NC(=O)[C@H](CO)NC(=O)c2cccc(=O)[nH]2)CO1 |  | inactive | > 10 µM | > 10 µM | Active | > 10 µM |  |  |  | 0.158 to 0.162 µM |  |  |  |  |  | 
